The results in this text go back to patent US10500248B2, “Method for treating cancer” (SUNNYBROOK RESEARCH INSTITUTE, priority 2015, dated 2019).

Like-named read-outs stand apart in the source and are kept apart here.

Data set [1] relates to pro-uPA, active uPA, uPAR, MMP-2 and MMP-9 in PC3 cells. Put plainly: Western blot of uPA-MMP pathway, PC3. It counts as cell-based, human. As for the experimental part: (§1) Protein lysates from the desmopressin monotherapy dose response study (100 pM-1 uM), desmopressin monotherapy time point study (1 uM, 0-48 h) and combination study and concentrated media employed for Western blot analysis, were prepared as previously described.^14 The proteins were subjected to 10-12% SDS-PAGE and electrophoretically transferred onto a PVDF membrane at 100V/300 mA overnight using a semidry transfer apparatus (Bio-Rad Laboratories, Hercules, Calif.). After activation in methanol (100%), blots were incubated for 60 mins at room temperature in TBST containing 5% skimmed milk. After washing, the membranes were incubated with primary antibodies against Bax, bcl-2, p21 (waf1/cip1), p27 (kip1), cdk2, cdk4, uPA, uPAR, MMP-2 and MMP-9 (1:100-200, Santacruz Biotechnology, Santacruz, Calif., USA). After incubation with respective primary antibody, the membrane was washed with TBST 3 times for 5 min, then incubated with appropriate secondary antibody for 1 h at room temperature and washed with TBST 3 times for 5 min. Protein detection was performed with enhanced chemiluminescence Western blotting regents (Amersham Pharmacia Biotech, Buckinghamshire, UK).
Background: In western blotting, separated proteins are transferred to a membrane and probed.

The subject of data set [2] is DU145 cells. Put plainly: DU145 xenograft model in athymic nude mice. It counts as in vivo. Conditions: day 55 post inoculation. As for the experimental part: 6-week old male athymic nude mice (Charles river, QC, Canada) were used to evaluate the effect of combination therapy on DU145 tumor growth in vivo. […] Following 2 weeks of housing, 1×10^6 DU145 cells per animal in 100 μL matrigel solution (BD Bioscience, CA, USA) were inoculated subcutaneously, according to procedure described by Fridman et al (51). After 14 days following inoculation, body weight and tumor size were measured, and mice were randomly assigned to different treatment groups. Groups included control (sham treatments), DTX (5 mg/kg body weight) intraperitoneally, Desmopressin (2 μg/ml/body weight) intravenously 30 minutes prior to IP injection and 24 hours later or combination therapy (n=4 per group). Each group received treatment once every other week for a total of 3 treatments. Animal weight and tumor measurements were assessed regularly. Tumor size was calculated by length (L) and width (W) measured with caliper according to the following formula: V=(L×W2) ( […] /6).
Two weeks following the last treatment, mice were euthanized; tumors were excised, measured directly with caliper and sent for histological analysis.
Statistics: Tumor volume calculated during the treatment period were compared using repeated measures one-way ANOVA test (SPSS©). Final tumor volume and body weight measurements were compared separately using one-way ANOVA test.

The subject of data set [3] is PC3 cells. Description: Flow cytometry cell cycle analysis (BrdU labeling), PC3. It counts as cell-based, human. As to the method:
To analyze cell cycle profiles, cells were plated at a density of 1×10^6 per 10 cm dish. Asynchronously growing cells were pulse labeled with […] bromodeoxyuridine (BrdU) for 2 h with or without prior treatment of the antioxidants at the end of 24 h. Cells were then harvested, fixed with 70% ethanol, treated with 0.1% HCl and heated for 10 min at 90° C. to expose the labeled DNA. Cells were stained with anti-BrdU-conjugated FITC (Becton-Dickinson) and counterstained with propidium iodide, and then allowed to incubate for 30 mins on ice. Samples were filtered through a nylon mesh. Cell cycle analysis was carried out on the FACS Calibur flow cytometer using the Cell Quest Pro software package (Becton-Dickinson, CA, USA). The experiments were repeated 3 times in triplicates and statistical analysis performed as mentioned below.
In general terms: In flow cytometry, cells or beads pass a laser one at a time.

The subject of data set [4] is cyclin A, cyclin B, CDK2, CDK4, p21(waf1/cip1), p27(kip1), Bax, Bcl-2, PARP, Caspase 3 in PC3 cells. Description: Western blot of cell cycle and apoptosis proteins, PC3. It counts as cell-based, human. As to the method: as §1
In data set [5] the test system is PC3 cells. Description: Transwell cell migration assay, PC3. To be noted: PC3, 24 h; desmopressin 1 nM and 1 μM; 5 nM docetaxel in combination. Type of data set: cell-based, human. As for the experimental part: (§2) The migration of cells was measured using transwell insert plates (BD Biosciences, Bedford Mass.) according to the manufacture's protocol. Cells were subjected to 24 h of serum deprivation in DMEM/F12 supplemented with FBS. PC3 (5×10^4) cells were plated onto filters in 8.0-μm transwell insert plates and treated with these compounds, desmopressin (1 nM, 1 μM) and 5 nM docetaxel, in serum-free medium. The lower chamber also contained 10% FBS. Cells were allowed to migrate for 24 h. After the treatment, cells remaining on the top surfaces of the filter were removed using cotton swabs. The migrated cells that are attached to the lower surface of the filter were fixed in 4% formaldehyde at room temperature for 30 min, and then stained with crystal violet for 20 min. The migrated cells from random fields were chosen and counted using the computer-based microscopy imaging system. For the invasion assay, the same procedures were performed as described in the migration assay, except that the cells were plated onto 24-well matrigel-coated transwell plates (BD Biosciences, Bedford Mass.). The experiments were repeated 2 times in duplicates and statistical analysis performed.

In data set [6] the test system is PC3 cells. Conditions: for body weight: during each study. As for the experimental part:
The mice were housed and maintained in laminar flow cabinets under specific pathogen-free conditions in facilities approved by the University of Toronto Animal Research Ethics Board and in accordance with their regulations and standards by the Canadian Council on Animal Care (CCAC). Cells (1×10^6 PC3 cells with 100 μl martrigel solution (BD Biosciences, CA, USA)) were inoculated subcutaneously (sc) into 6-8 week-old male nude mice (Harlan Sprague Dawley, Inc.). After 14 days, the developing tumors were measured and mice randomly assigned to different treatment groups. Tumor volumes were determined by measurement of tumor length (L) and width (W) with a caliper and calculated according to the formula: V=(L×W^2)(π/6) twice a week. A tumor volume in the range of 100 mm^3 was required for a given mouse to be included. Using the xenograft model, tumor growth was determined for the control and each treatment mice. Mice were randomized into four groups; control (n=15), desmopressin alone (n=15), docetaxel alone (n=10) and desmopressin in combination with docetaxel (n=10). Control animals received only the saline vehicle. Desmopressin from Ferring Pharmaceuticals (Ferring Inc, CA, USA) was administrated in 2 doses, 0 h and 24 h. Mice received desmopressin intravenously in the saline at a final dose of 2 μg/ml/body weight (50 ng/0.3 ml saline dose). Mice were administrated docetaxel at a dose of 5 mg/kg intravenously as 3 weekly cycles. Desmopressin was administrated in 2 doses, 30 min prior to and 24 h after the administration of docetaxel. The animals that were administrated docetaxel or desmopressin in combination with docetaxel were sacrificed 35 days after cell inoculation. Control and desmopressin mice were monitored until tumor volume was approximately 1500 mm3 or day 49, whichever earlier, in order to evaluate antitumor effect of desmopressin in vivo study.
All experiments were performed in triplicates. The date represented mean±the standard error of the mean. Statistical analysis was done by Student's t test at a significance level of P<0.05. Analyses of the in vivo results were performed using either Student's t-testing or repeated measures one-way ANOVA techniques.

For data set [7], the system named is DU145 cells. Put plainly: Wound healing assay, DU145. Conditions: for effect on migration (wound closure) compared to control: 10 nM DTX alone, Desmopressin alone. It counts as cell-based. As for the experimental part: The motility inhibitory potential of desmopressin alone and/or in combination with docetaxel was accessed by wound healing assay according to previously described protocol^49, 50. DU145 cell were plated on 24-well plates at a concentration of 50,000 cells per well and were allowed to grow until they reached 90-100% confluence. After incubating the cells with 1 mg/L Mitomycin C (Sigma©) for 1 hour, a vertical scratch across each well was created; floating cells removed and cell media or media with treatment solutions were added. Images were obtained at zero-time point and after 24 hours of treatment. A computer-based microscopy imaging system with X200 magnification (Axiovision©) was used to measure wound healing of each well. Each experiment was carried out in duplicates and repeated three times

The subject of data set [8] is PC3 cells. Description: Matrigel invasion assay, PC3. Conditions: 5 nM docetaxel, desmopressin 1 nM and 1 uM. Type of data set: cell-based, human. As for the experimental part: as §2
The test system of data set [9] is PC3 cells. Put plainly: MTS cell proliferation assay, PC3. Conditions: PC3, 72 h; docetaxel 0-100 nM; desmopressin 1 nM-1 μM; combination desmopressin (1 nM, 1 μM) and 5 nM docetaxel. Type of data set: cell-based, human. As to the method: PC3 human prostate carcinoma cells were obtained from the American Type Culture Collection (Rockville, Md., USA). Cells were cultured in DMEM/F12 medium (Invitrogen, ON, Canada) with 10% fetal bovine serum (FBS; Gibco, NY, USA), 100 IU/ml penicillin, 100 μg/ml streptomycin and 0.3 mg/ml 1-glutamine, and maintained at 37° C. in a humidified atmosphere of 5% CO2 in air. Cells were grown to 80% confluence in 10-cm tissue culture plates.
Cell proliferation was determined by MTS assay as previously described.^14 Cells (5×10^3/well) were plated using 96 well plates. After cultivation for 24 h, a range of concentration of desmopressin (100 pM-1 μM) and/or Docetaxel (1 nM-100 nM) were added and culture continued for up to 72 h. Cell viability was assessed by incubation with MTS for 2 hours and resulting absorbance measured at 595 nm using an ELISA plate reader. In the combination studies, varying dose of each agents were tested. The experiments were repeated 3 times in triplicates and statistical analysis performed.
On the technique in general: Formazan colour is commonly taken as a measure of viable cells.

The mark [10] stands for this setting: dose response study 100 pM-1 uM.

Regarding `NC(=O)CC[C@@H]1NC(=O)[C@H](Cc2ccccc2)NC(=O)[C@H](Cc2ccc(O)cc2)NC(=O)CCSSC[C@@H](C(=O)N2CCC[C@H]2C(=O)N[C@H](CCCN=C(N)N)C(=O)NCC(N)=O)NC(=O)[C@H](CC(N)=O)NC1=O` [desmopressin, 1-desamino-8-D-arginine vasopressin], in [1] (setting [10]), the “expression of MMP-2” value is “reduced in a dose dependent manner”, the “expression of MMP-9” value is recorded as “reduced in a dose dependent manner”, the “expression of active uPA” value is recorded as “reduced in a dose dependent manner” and the “expression of precursor pro-uPA” value is “reduced in a dose dependent manner”. The “expression of uPAR” value in [1] (setting [10]) is “unaltered”. Moreover, in data set [1] (time point study, 1 μM, 0-48 h), the “expression of MMP-2” value is “reduced in a time dependent manner”, the “expression of MMP-9” value is “reduced in a time dependent manner”, the “expression of uPA” value is recorded as “reduced in a time dependent manner” and the “expression of uPAR” value is reported as “not altered”. Further, the “average tumor size, final direct measurement of excised tumors” value in [2] amounted to 1597±681 mm3. The cell cycle distribution result in data set [3] (monotherapy) is reported as “did not alter cell cycle distribution”. In data set [4], the “expression of (total) Caspase 3” value is on record as “did not reduce the expression”, the “expression of PARP” value was “did not reduce the expression” and the “expression of bcl-2” value is listed as “did not reduce the expression”. For the same compound, the “cell migration, transwell plates” value in [5] was “significantly inhibited cell migration”. In addition, in [6] (PC3 xenograft, nude mice, day 35 post tumor inoculation, desmopressin 2 μg/ml/body weight i.v.), the mean tumor volume came to 642 mm3. For the same compound, in data set [6] (PC3 xenograft, nude mice), the body weight entry is “consistently maintained their body weight”. The tolerability of treatment result in [6] (PC3 xenograft, nude mice, intravenous injection) is reported as “well tolerated”. For the same compound, the “tumor growth / tumor size versus control (and docetaxel alone)” value in data set [6] (PC3 xenograft, nude mice, docetaxel 5 mg/kg i.v., desmopressin 2 μg/ml/body weight i.v.) is reported as “significantly slower rate of tumor development”. In addition, the “effect on migration (wound closure) compared to control” value in data set [7] (DU145, 24 hours) is recorded as “no statistical significant effect”. Further, the “cell invasion, matrigel invasion assay” value in [8] is recorded as “significantly inhibition of cell invasion”. For the same compound, the “cell proliferation / cell viability (MTS), relative to untreated control cells” value in data set [9] was “significantly reduced cell proliferation”.
Consider `CC(=O)O[C@@]12CO[C@@H]1C[C@H](O)[C@@]1(C)C(=O)[C@H](O)C3=C(C)[C@@H](OC(=O)[C@H](O)[C@@H](NC(=O)OC(C)(C)C)c4ccccc4)C[C@@](O)([C@@H](OC(=O)c4ccccc4)[C@H]21)C3(C)C` [docetaxel], for which, in data set [2], the “average tumor size, final direct measurement of excised tumors” value is 1330±550 mm3. For the same compound, the “proportion of cells in G2 phase” value in [3] (5 nM docetaxel, alone or with 1 nM/1 μM desmopressin) is given as “significant increase in the proportion of cells in G2 phase”. Moreover, in [6] (PC3 xenograft, nude mice), the body weight result is listed as “consistently maintained their body weight”. Further, in data set [6] (mouse, in vivo, iv), the tolerability of treatment result is given as “well tolerated”. In data set [7] (DU145, 24 hours), the “effect on migration (wound closure) compared to control” value was “migration inhibitory effect”. In addition, the “in vitro wound closure” value in data set [7] (DU145, 24 hours, DTX 10 nM, alone or combined with 1 μm Desmopressin) was 48.9%. Further, in data set [7] (DU145, DTX concentration of 100 μM), the “cell kill in wound healing assay” value was “significant cell kill”. Also, in [8], the “cell invasion, matrigel invasion assay” value is given as “significantly inhibition of cell invasion”. For the same compound, in data set [9], the “cell proliferation / cell viability (MTS), relative to untreated control cells” value is on record as “decreased cell viability in a dose dependent manner”.
